In article PMC9492542, “Brain-restricted mTOR inhibition with binary pharmacology” (Nature, 2022):
Values joined by “and” are separate entries in the source; they are usually repeats but may differ in a detail not shown here. Identical values can stand only once. Like-named read-outs stand apart in the source and are kept apart here.

How the values were obtained:
[1] = biological target: T1, LRRK2 (Homo sapiens, UniProt Q5S007); test: In vitro LRRK2 kinase inhibition assay (SelectScreen Adapta), with or without 10 µM FKBP12; assay type: biochemical
T1 construct: purchased SelectScreen Services (Thermo Fisher Scientific)
Protocol: In vitro kinase inhibition assays were performed by SelectScreen Services (Thermo Fisher Scientific) using either Z’-LYTE (mTOR, Src, Csk, EGFR, HER2 and HGK), Adapta (LRRK2) or LanthaScreen (DDR2) assay format (standardized protocols can be accessed on the SelectScreen website: https://www.thermofisher.com/us/en/home/products-and-services/services/custom-services/screening-and-profiling-services/selectscreen-profiling-service/selectscreen-kinase-profiling-service.html. When indicated, recombinant FKBP12 protein was added to the assay mixture to a final concentration of 10 µM.

[2] = biological target: LRRK2 (Mus musculus, UniProt Q5S006); test: Phospho-LRRK2 (S935) quantification by TR-FRET in RAW264.7 cells; settings: for P-LRRK2(S935) in RAW264.7 cells: replicate raw data
Protocol: Phospho-LRRK2 (S935) was quantified in drug-treated cells using a Phospho-LRRK2 (Ser935) cellular kit (Cisbio) following the manufacturer’s instructions. […] Cells were treated with compounds at the indicated concentrations for 2 h. Medium was removed by aspiration and the cells were rinsed with ice-cold PBS (1 ml). Cells were lysed with 100 µl Cisbio 1X lysis buffer at 23 °C directly in plate for 30 min. […] Clarified lysate (16 µl) was dispensed into one well of a low-volume, round-bottom 384-well plate, and 4 µl LRRK2–phospho-LRRK2 (S935) antibody master mix (Cisbio) was added to each well. The plate was incubated at 23 °C for 4 h.
The TR-FRET signal was calculated as the ratio fluorescence intensity [read B]/[read A].

[3] = biological target: T2, FKBP12 (Homo sapiens, UniProt P62942); test: Competition fluorescence polarization assay with FITC-rapamycin tracer; assay type: binding
T2 construct: His-tag (HRV 3C cleavable) (cleaved yes); made in house; host or cells: Escherichia coli BL21(DE3)
Protocol: Compound binding affinity was determined using a competition fluorescence polarization assay. […] The assay buffer was 20 mM HEPES pH 7.5 and 0.01% Triton X-100. […] Data were fitted to a three-parameter sigmoidal curve to derive IC50 values. Ki of the compounds were calculated using a tool provided by S. Wang’s laboratory (http://www.umich.edu/~shaomengwanglab/software/calc_ki/index.html). Data were plotted in GraphPad Prism 9.0.

[4] = read-out: residual kinase activity (LRRK2), 0.495 nM drug, + 10 µM FKBP12
[5] = read-out: residual kinase activity (LRRK2), 0.495 nM drug, no FKBP12
[6] = read-out: residual kinase activity (LRRK2), 1.52 nM drug, + 10 µM FKBP12
[7] = read-out: residual kinase activity (LRRK2), 1.52 nM drug, no FKBP12
[8] = read-out: residual kinase activity (LRRK2), 4.57 nM drug, + 10 µM FKBP12
[9] = read-out: residual kinase activity (LRRK2), 4.57 nM drug, no FKBP12
[10] = read-out: residual kinase activity (LRRK2), 13.7 nM drug, + 10 µM FKBP12
[11] = read-out: residual kinase activity (LRRK2), 13.7 nM drug, no FKBP12
[12] = read-out: residual kinase activity (LRRK2), 41.2 nM drug, + 10 µM FKBP12
[13] = read-out: residual kinase activity (LRRK2), 41.2 nM drug, no FKBP12
[14] = read-out: residual kinase activity (LRRK2), 123 nM drug, + 10 µM FKBP12
[15] = read-out: residual kinase activity (LRRK2), 123 nM drug, no FKBP12
[16] = read-out: residual kinase activity (LRRK2), 370 nM drug, + 10 µM FKBP12
[17] = read-out: residual kinase activity (LRRK2), 370 nM drug, no FKBP12
[18] = read-out: residual kinase activity (LRRK2), 1110 nM drug, + 10 µM FKBP12
[19] = read-out: residual kinase activity (LRRK2), 1110 nM drug, no FKBP12
[20] = read-out: residual kinase activity (LRRK2), 3330 nM drug, + 10 µM FKBP12
[21] = read-out: residual kinase activity (LRRK2), 3330 nM drug, no FKBP12
[22] = read-out: residual kinase activity (LRRK2), 10000 nM drug, + 10 µM FKBP12
[23] = read-out: residual kinase activity (LRRK2), 10000 nM drug, no FKBP12
[24] = 100 nM compound, +1 µM RapaBlock

T1 sequence (Q5S007 whole entry): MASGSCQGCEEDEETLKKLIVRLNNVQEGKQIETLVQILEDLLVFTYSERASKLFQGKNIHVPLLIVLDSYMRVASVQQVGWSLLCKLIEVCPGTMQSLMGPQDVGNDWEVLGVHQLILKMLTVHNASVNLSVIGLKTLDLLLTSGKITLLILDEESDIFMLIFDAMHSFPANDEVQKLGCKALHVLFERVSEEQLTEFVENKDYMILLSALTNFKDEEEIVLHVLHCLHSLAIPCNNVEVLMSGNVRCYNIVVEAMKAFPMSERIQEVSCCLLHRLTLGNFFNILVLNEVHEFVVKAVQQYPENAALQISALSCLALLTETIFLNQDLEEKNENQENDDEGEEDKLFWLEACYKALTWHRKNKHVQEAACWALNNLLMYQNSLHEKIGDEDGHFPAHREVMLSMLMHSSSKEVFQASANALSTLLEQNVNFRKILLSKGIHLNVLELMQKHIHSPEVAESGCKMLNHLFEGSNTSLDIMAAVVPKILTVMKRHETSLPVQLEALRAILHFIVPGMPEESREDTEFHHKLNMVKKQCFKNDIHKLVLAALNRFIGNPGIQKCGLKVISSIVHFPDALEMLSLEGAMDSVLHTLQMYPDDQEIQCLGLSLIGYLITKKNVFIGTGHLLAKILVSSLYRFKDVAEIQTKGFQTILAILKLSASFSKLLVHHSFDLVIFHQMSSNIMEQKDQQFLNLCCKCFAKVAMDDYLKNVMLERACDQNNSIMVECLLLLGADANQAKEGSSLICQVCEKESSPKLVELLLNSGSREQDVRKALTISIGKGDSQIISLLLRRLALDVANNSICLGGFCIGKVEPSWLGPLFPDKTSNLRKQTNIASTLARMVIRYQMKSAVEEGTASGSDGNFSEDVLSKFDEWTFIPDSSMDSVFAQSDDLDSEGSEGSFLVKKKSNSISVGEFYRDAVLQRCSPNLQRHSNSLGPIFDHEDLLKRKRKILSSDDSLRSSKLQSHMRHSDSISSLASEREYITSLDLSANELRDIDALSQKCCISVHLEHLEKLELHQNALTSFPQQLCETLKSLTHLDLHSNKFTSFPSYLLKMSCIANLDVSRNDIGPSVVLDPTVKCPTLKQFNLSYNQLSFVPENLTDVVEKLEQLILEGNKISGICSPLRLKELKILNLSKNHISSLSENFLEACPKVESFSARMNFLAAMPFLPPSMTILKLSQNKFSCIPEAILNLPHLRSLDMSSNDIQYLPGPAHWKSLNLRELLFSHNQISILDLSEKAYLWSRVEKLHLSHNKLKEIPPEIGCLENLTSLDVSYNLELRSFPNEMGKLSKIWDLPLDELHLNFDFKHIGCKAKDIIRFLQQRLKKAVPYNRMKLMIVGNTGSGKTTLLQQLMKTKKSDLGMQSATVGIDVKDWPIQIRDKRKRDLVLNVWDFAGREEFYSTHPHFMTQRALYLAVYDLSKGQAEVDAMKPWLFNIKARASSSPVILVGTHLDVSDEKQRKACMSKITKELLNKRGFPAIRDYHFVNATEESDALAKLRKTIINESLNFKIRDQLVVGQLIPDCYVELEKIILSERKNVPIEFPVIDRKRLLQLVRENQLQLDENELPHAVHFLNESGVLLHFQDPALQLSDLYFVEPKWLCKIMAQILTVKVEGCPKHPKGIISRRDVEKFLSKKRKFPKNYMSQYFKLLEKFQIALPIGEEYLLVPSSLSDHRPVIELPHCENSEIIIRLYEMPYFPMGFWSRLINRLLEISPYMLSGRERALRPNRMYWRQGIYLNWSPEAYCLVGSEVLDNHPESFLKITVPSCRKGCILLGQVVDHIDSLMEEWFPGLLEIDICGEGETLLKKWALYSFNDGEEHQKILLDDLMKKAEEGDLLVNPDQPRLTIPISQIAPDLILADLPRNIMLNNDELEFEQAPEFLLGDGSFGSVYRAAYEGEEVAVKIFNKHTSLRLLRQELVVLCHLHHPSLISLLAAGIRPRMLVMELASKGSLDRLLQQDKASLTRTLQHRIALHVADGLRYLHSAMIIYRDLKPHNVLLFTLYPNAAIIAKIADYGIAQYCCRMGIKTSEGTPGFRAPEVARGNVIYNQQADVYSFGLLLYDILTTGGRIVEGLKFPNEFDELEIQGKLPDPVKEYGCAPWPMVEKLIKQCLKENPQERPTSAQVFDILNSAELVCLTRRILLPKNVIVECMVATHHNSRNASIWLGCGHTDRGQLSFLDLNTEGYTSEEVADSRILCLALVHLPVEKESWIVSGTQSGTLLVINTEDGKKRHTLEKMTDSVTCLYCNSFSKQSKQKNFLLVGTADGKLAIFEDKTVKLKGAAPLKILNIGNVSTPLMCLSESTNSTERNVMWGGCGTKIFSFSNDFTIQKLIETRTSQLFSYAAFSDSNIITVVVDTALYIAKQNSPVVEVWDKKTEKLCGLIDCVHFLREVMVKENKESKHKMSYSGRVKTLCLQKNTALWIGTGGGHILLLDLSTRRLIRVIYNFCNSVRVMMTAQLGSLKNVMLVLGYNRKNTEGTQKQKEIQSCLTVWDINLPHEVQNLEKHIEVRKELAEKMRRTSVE
LRRK2 (Mus musculus, UniProt Q5S006), sequence (Q5S006 whole entry): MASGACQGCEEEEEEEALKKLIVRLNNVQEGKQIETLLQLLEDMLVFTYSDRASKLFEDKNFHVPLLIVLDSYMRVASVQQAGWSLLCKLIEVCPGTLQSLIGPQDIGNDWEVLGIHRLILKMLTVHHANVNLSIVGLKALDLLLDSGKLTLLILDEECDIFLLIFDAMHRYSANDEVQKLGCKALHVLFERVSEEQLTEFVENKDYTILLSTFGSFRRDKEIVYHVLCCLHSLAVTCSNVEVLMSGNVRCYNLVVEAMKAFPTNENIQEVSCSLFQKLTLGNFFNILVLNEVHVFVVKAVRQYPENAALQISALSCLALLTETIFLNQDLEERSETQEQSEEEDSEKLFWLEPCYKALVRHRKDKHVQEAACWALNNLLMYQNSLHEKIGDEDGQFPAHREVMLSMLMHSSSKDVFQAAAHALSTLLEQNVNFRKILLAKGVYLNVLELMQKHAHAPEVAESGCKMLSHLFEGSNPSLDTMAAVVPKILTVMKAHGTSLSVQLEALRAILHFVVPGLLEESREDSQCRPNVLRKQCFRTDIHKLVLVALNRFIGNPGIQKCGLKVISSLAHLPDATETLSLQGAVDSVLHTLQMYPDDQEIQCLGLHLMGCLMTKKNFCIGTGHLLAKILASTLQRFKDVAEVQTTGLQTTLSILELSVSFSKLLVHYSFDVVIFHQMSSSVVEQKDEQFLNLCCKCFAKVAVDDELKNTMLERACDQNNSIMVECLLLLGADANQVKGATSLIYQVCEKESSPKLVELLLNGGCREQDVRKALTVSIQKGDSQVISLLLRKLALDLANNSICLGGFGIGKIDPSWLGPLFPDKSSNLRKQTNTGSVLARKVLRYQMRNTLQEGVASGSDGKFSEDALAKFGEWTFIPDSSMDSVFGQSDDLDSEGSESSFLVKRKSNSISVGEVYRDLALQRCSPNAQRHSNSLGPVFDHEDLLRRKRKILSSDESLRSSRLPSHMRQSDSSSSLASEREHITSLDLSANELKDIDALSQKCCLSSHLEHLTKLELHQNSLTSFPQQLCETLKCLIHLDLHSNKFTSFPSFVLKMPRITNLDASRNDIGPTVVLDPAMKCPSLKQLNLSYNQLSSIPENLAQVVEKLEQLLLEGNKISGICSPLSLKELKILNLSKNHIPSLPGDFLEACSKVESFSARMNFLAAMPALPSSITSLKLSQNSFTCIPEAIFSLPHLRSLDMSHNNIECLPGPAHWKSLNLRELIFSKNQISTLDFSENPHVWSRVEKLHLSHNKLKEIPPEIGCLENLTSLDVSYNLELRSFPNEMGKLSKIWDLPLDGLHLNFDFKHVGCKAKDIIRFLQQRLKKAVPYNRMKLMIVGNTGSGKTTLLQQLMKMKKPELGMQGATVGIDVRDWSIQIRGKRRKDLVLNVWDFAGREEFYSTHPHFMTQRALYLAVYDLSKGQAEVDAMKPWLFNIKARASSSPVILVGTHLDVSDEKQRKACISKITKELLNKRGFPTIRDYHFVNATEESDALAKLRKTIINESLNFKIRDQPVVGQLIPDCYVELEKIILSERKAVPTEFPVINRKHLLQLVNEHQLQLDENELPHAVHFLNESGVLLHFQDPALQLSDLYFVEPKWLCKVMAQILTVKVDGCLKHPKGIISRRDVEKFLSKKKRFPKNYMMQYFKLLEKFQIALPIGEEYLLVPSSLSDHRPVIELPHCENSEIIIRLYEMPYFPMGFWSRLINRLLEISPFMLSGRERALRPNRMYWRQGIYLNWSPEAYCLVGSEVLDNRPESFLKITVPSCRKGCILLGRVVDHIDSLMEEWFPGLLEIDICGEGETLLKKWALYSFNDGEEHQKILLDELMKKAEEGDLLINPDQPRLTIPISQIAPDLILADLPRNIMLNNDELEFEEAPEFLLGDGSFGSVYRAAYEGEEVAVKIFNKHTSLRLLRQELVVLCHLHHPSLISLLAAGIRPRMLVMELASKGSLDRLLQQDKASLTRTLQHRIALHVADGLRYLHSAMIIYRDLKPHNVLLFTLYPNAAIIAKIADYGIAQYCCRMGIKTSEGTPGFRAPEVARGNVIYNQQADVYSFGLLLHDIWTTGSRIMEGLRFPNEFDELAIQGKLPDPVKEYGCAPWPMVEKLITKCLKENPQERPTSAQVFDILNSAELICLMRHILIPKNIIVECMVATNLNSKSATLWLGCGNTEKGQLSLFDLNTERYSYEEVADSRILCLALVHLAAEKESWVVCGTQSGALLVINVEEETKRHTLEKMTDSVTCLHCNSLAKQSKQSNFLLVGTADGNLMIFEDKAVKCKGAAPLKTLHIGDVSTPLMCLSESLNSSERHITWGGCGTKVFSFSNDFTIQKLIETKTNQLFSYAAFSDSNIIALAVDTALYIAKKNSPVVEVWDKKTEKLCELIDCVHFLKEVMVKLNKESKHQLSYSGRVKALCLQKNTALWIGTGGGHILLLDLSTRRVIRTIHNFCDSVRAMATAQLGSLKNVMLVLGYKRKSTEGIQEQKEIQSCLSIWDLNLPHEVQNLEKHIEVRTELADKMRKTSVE
T2 sequence (P62942 whole entry): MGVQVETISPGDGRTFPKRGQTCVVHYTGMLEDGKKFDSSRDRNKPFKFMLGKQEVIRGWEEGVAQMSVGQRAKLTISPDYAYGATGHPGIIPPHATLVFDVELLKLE

For `CCNc1nc(Nc2cc(F)c(C(=O)N3CCOCC3)cc2OC)ncc1C(F)(F)F` [GNE7915], the “residual kinase activity (LRRK2)” value ([1]; 0.495 nM drug, no FKBP12) was 96, the “residual kinase activity (LRRK2)” value ([1]; 1.52 nM drug, + 10 µM FKBP12) was 66 and the “residual kinase activity (LRRK2)” value ([1]; 1.52 nM drug, no FKBP12) was 75. The “residual kinase activity (LRRK2)” value ([1]; 4.57 nM drug, + 10 µM FKBP12) was 39, the “residual kinase activity (LRRK2)” value ([1]; 4.57 nM drug, no FKBP12) was 41 and the “residual kinase activity (LRRK2)” value ([1]; 13.7 nM drug, + 10 µM FKBP12) was 15. The “residual kinase activity (LRRK2)” value ([1]; 13.7 nM drug, no FKBP12) was 16, the “residual kinase activity (LRRK2)” value ([1]; 41.2 nM drug, + 10 µM FKBP12) was 9 and the “residual kinase activity (LRRK2)” value ([1]; 41.2 nM drug, no FKBP12) was 10. For the same compound, the “residual kinase activity (LRRK2)” value ([1]; 123 nM drug, + 10 µM FKBP12) was 6, the “residual kinase activity (LRRK2)” value ([1]; 123 nM drug, no FKBP12) was 3 and the “residual kinase activity (LRRK2)” value ([1]; 370 nM drug, + 10 µM FKBP12) was 5. The “residual kinase activity (LRRK2)” value ([1]; 370 nM drug, no FKBP12) was 3, the “residual kinase activity (LRRK2)” value ([1]; 1110 nM drug, no FKBP12) was 3 and the “residual kinase activity (LRRK2)” value ([1]; 10000 nM drug, + 10 µM FKBP12) was 3. For the same compound, the remaining activity at 0.000495 µM [1, 4] was 84%, the remaining activity at 0.000495 µM [1, 5] was 78% and the remaining activity at 0.00152 µM [1, 6] was 68%. The remaining activity at 0.00152 µM [1, 7] was 68%, the remaining activity at 0.00457 µM [1, 8] was 38% and the remaining activity at 0.00457 µM [1, 9] was 39%. It also gave a remaining activity at 0.0137 µM [1, 10] of 17%, a remaining activity at 0.0137 µM [1, 11] of 18% and a remaining activity at 0.0412 µM [1, 12] of 8%. It also gave a remaining activity at 0.0412 µM [1, 13] of 6%, a remaining activity at 0.123 µM [1, 14] of 5% and a remaining activity at 0.123 µM [1, 15] of 4%. The remaining activity at […] [1, 16] was 4%, the remaining activity at […] [1, 17] was 5% and the remaining activity at 1.11 µM [1, 18] was 5%. It also gave a remaining activity at 1.11 µM [1, 19] of 4%, a remaining activity at 3.33 µM [1, 20] of 5% and a remaining activity at 3.33 µM [1, 21] of 3%. For the same compound, the remaining activity at 10 µM [1, 22] was 5%, the remaining activity at 10 µM [1, 23] was 3% and the IC50 ([1]; without added FKBP12) was 3 nM. The IC50 [2] was 81 nM, the “P-LRRK2(S935) in RAW264.7 cells” value [2, 24] was 61.9 and 64.8 and 53.2 and the “P-LRRK2(S935) in RAW264.7 cells” value ([2]; 100 nM compound, No RapaBlock) was 56 and 55.7 and 48.1.
`CCNc1nc(Nc2cc(F)c(C(=O)N3CCN(C(=O)CCC[C@@H]4/C=C(\C)C[C@H](C)C[C@H](OC)[C@H]5O[C@@](O)(C(=O)C(=O)N6CCCC[C@H]6C(=O)O[C@H](/C(C)=C/[C@@H]6CC[C@@H](O)[C@H](OC)C6)[C@H](C)[C@@H](O)CC4=O)[C@H](C)C[C@@H]5OC)CC3)cc2OC)ncc1C(F)(F)F` [FK-GNE7915] was tested, and the “residual kinase activity (LRRK2)” value ([1]; 0.495 nM drug, + 10 µM FKBP12) was 87, the “residual kinase activity (LRRK2)” value ([1]; 0.495 nM drug, no FKBP12) was 95 and the “residual kinase activity (LRRK2)” value ([1]; 1.52 nM drug, + 10 µM FKBP12) was 87. The “residual kinase activity (LRRK2)” value ([1]; 1.52 nM drug, no FKBP12) was 95, the “residual kinase activity (LRRK2)” value ([1]; 4.57 nM drug, + 10 µM FKBP12) was 65 and the “residual kinase activity (LRRK2)” value ([1]; 4.57 nM drug, no FKBP12) was 107. The “residual kinase activity (LRRK2)” value ([1]; 13.7 nM drug, no FKBP12) was 90, the “residual kinase activity (LRRK2)” value ([1]; 41.2 nM drug, + 10 µM FKBP12) was 41 and the “residual kinase activity (LRRK2)” value ([1]; 41.2 nM drug, no FKBP12) was 70. The “residual kinase activity (LRRK2)” value ([1]; 123 nM drug, + 10 µM FKBP12) was 31, the “residual kinase activity (LRRK2)” value ([1]; 123 nM drug, no FKBP12) was 47 and the “residual kinase activity (LRRK2)” value ([1]; 370 nM drug, no FKBP12) was 25. The “residual kinase activity (LRRK2)” value ([1]; 1110 nM drug, + 10 µM FKBP12) was 7, the “residual kinase activity (LRRK2)” value ([1]; 1110 nM drug, no FKBP12) was 9 and the “residual kinase activity (LRRK2)” value ([1]; 3330 nM drug, no FKBP12) was 4. The “residual kinase activity (LRRK2)” value ([1]; 10000 nM drug, + 10 µM FKBP12) was 5, the “residual kinase activity (LRRK2)” value ([1]; 10000 nM drug, no FKBP12) was 3 and the remaining activity at 0.000495 µM [1, 4] was 91%. The remaining activity at 0.000495 µM [1, 5] was 101%, the remaining activity at 0.00152 µM [1, 6] was 91% and the remaining activity at 0.00152 µM [1, 7] was 106%. For the same compound, the remaining activity at 0.00457 µM [1, 8] was 78%, the remaining activity at 0.00457 µM [1, 9] was 94% and the remaining activity at 0.0137 µM [1, 10] was 57%. The remaining activity at 0.0137 µM [1, 11] was 89%, the remaining activity at 0.0412 µM [1, 12] was 38% and the remaining activity at 0.0412 µM [1, 13] was 66%. The remaining activity at 0.123 µM [1, 14] was 24%, the remaining activity at 0.123 µM [1, 15] was 54% and the remaining activity at […] [1, 16] was 14%. It also gave a remaining activity at […] [1, 17] of 29%, a remaining activity at 1.11 µM [1, 18] of 8% and a remaining activity at 1.11 µM [1, 19] of 10%. It also gave a remaining activity at 3.33 µM [1, 20] of 5%, a remaining activity at 3.33 µM [1, 21] of 5% and a remaining activity at 10 µM [1, 22] of 6%. For the same compound, the remaining activity at 10 µM [1, 23] was 5%, the IC50 ([1]; with 10 µM FKBP12) was 21 nM and the IC50 ([1]; without added FKBP12) was 107 nM. For the same compound, the IC50 [2] was 6.7 nM, the “level of phospho-LRRK2 (S935), % of the basal level” value ([2]; 100 nM FK-GNE7915) was 15% and the “effect on LRRK2 activity” value ([2]; 100 nM FK-GNE7915 + 1 µM RapaBlock) was “had no effect on LRRK2 activity”. For the same compound, the “P-LRRK2(S935) in RAW264.7 cells” value [2, 24] was 99.2 and 97.5 and 90.7, the “P-LRRK2(S935) in RAW264.7 cells” value ([2]; 100 nM compound, No RapaBlock) was 16.7 and 15.6 and 13.4 and the “P-LRRK2(S935) in RAW264.7 cells” value ([2]; Conc 0.457247 nM, 0 nM = 100) was 84.5 and 90.2 and 94.3. For the same compound, the “P-LRRK2(S935) in RAW264.7 cells” value ([2]; Conc 1.37174 nM, 0 nM = 100) was 79.4 and 82.9 and 87.4, the “P-LRRK2(S935) in RAW264.7 cells” value ([2]; Conc 4.11523 nM, 0 nM = 100) was 67.8 and 77.9 and 73.6 and the “P-LRRK2(S935) in RAW264.7 cells” value ([2]; Conc 12.3457 nM, 0 nM = 100) was 32.2 and 34.9 (2×). For the same compound, the “P-LRRK2(S935) in RAW264.7 cells” value ([2]; Conc 37.037 nM, 0 nM = 100) was 13.7 and 14.5 and 16.2, the “P-LRRK2(S935) in RAW264.7 cells” value ([2]; Conc 111.111 nM, 0 nM = 100) was 11.4 (2×) and 13.1 and the “P-LRRK2(S935) in RAW264.7 cells” value ([2]; Conc 333.333 nM, 0 nM = 100) was 13.1 and 12.6 and 11.8. For the same compound, the “P-LRRK2(S935) in RAW264.7 cells” value ([2]; Conc 1000 nM, 0 nM = 100) was 14 and 15.7 and 13.3.
In the case of `CCNc1nc(Nc2cc(F)c(C(=O)N3CCOCC3)cc2OC)ncc1C(F)(F)F` [GNE-7915], the “P-LRRK2(S935) in RAW264.7 cells” value ([2]; Conc 0.457247 nM, 0 nM = 100) is reported as 93.9 and 94 and 94.8, the “P-LRRK2(S935) in RAW264.7 cells” value ([2]; Conc 1.37174 nM, 0 nM = 100) is reported as 113.4 and 112.1 and 104.8 and the “P-LRRK2(S935) in RAW264.7 cells” value ([2]; Conc 4.11523 nM, 0 nM = 100) is reported as 116.1 and 116.6 and 114.3. The “P-LRRK2(S935) in RAW264.7 cells” value ([2]; Conc 12.3457 nM, 0 nM = 100) was 104.6 and 91.1 and 91.3, the “P-LRRK2(S935) in RAW264.7 cells” value ([2]; Conc 37.037 nM, 0 nM = 100) was 75.2 and 70.5 and 70.4 and the “P-LRRK2(S935) in RAW264.7 cells” value ([2]; Conc 111.111 nM, 0 nM = 100) was 43.3 and 40.8 and 41. The “P-LRRK2(S935) in RAW264.7 cells” value ([2]; Conc 333.333 nM, 0 nM = 100) was 26.6 and 22.6 and 23.5 and the “P-LRRK2(S935) in RAW264.7 cells” value ([2]; Conc 1000 nM, 0 nM = 100) was 17.7 and 14.2 and 15.7.
With `CO[C@H]1C[C@@H](C)C/C(C)=C/[C@@H](CCCC(=O)O)C(=O)C[C@H](O)[C@@H](C)[C@@H](/C(C)=C/[C@@H]2CC[C@@H](O)[C@H](OC)C2)OC(=O)[C@@H]2CCCCN2C(=O)C(=O)[C@]2(O)O[C@H]1[C@@H](OC)C[C@H]2C` [Compound 05-020] the Kd [3] was 1.5 nM.
